The values that follow come from ChEMBL document CHEMBL1201862, “PubChem BioAssay data set” (2004).

The source made the active and inactive calls.

A short description of one assay: cells. Type of assay: functional.
For assay [1], the target named is T1, Zinc finger protein mex-5 (Caenorhabditis elegans, UniProt Q9XUB2).
T1 sequence (Q9XUB2 whole entry): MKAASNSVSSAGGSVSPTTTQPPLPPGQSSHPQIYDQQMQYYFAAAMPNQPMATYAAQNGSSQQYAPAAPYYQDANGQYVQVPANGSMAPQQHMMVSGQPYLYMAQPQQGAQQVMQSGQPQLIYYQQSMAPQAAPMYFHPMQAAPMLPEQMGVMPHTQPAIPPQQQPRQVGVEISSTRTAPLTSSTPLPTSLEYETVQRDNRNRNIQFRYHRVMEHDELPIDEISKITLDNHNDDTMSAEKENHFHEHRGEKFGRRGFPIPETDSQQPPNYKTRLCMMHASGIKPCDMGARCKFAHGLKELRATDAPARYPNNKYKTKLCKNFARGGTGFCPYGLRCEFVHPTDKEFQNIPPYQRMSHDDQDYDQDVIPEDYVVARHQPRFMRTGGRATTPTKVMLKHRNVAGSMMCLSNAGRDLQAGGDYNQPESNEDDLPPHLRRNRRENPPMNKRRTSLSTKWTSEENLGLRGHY
Briefly: potency of MEX-5 RNA-binding blockers – biochemical, C. elegans, fluorescence polarization, dose response (AID 1960).

The target of assay [2] is T2, RNA-binding protein pos-1 (Caenorhabditis elegans, UniProt G5EF15).
T2 sequence (G5EF15 whole entry): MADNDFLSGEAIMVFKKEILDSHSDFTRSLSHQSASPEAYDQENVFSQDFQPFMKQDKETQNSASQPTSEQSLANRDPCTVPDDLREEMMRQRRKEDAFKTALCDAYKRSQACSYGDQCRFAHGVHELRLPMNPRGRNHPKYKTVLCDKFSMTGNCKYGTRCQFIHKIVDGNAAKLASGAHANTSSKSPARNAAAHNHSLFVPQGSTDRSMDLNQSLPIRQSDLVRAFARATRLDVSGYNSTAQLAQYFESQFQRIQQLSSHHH
Briefly: disruptors of C. elegans POS-1 RNA interaction – biochemical, fluorescence polarization, dose response (AID 1964).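 Note: purified POS-1 fused to maltose binding protein made in E. coli; potency of compounds blocking POS-1 binding to fluorescent RNA.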

Assay [3] deals with T3, Rac GTPase-activating protein 1 (Homo sapiens, UniProt Q9H0H5).
T3 sequence (Q9H0H5 whole entry): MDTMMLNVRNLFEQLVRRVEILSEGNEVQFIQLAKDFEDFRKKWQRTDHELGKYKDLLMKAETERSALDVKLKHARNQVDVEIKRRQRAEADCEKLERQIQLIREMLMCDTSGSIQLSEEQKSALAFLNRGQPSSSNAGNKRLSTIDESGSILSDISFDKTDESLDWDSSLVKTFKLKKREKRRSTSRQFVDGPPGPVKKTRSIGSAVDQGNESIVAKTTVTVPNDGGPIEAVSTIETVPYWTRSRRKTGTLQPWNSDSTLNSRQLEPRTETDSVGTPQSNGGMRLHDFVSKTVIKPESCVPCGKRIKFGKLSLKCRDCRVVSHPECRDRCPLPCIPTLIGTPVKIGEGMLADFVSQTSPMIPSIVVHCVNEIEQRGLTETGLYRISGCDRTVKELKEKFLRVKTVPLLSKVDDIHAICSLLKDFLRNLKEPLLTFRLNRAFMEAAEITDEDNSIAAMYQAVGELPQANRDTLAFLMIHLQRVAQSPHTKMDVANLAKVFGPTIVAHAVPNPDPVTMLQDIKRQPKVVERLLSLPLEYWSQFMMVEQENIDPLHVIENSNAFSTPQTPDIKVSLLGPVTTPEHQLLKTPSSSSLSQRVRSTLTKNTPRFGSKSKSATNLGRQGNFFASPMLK
Briefly: blockers of MgcRacGAP-driven Rac1 GTP hydrolysis – biochemical, ADP Hunter fluorescence, primary and confirmatory, confirmation (AID 624330). Type of assay: functional.

The nature of assay [4]: Luminescence Cell-Based Dose Confirmation HTS to Identify Inhibitors of Platelet Dense Granule Release. [Related pubchem assays: 1663 (Primary HTS), 1678 (Summary of Project)]. Type of assay: functional.
Assay [5] has as its target Luciferin 4-monooxygenase (Photinus pyralis, UniProt P08659). Briefly: inhibition of purified Photinus pyralis luciferase – biochemical, luminescence, dose response (AID 1891).
The target of another assay is Cytochrome P450 2C9 (Homo sapiens, UniProt P11712).
Cytochrome P450 2C9, sequence (P11712 whole entry): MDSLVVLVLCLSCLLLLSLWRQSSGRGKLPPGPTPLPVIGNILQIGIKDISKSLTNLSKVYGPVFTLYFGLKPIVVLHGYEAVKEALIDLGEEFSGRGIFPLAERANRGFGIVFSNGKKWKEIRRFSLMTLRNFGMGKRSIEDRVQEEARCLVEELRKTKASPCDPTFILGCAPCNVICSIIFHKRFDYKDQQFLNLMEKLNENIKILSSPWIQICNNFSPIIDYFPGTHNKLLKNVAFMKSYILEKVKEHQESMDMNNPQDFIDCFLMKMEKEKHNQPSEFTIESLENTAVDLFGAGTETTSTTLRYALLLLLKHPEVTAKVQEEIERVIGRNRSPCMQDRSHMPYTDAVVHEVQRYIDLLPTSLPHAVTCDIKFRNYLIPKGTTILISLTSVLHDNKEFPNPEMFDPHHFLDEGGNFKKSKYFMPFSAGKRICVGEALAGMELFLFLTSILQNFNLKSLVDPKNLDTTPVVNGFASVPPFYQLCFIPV
In the next assay the target is Cytochrome P450 2C19 (Homo sapiens, UniProt P33261). Briefly: Cytochrome panel assay with activity outcomes. Panel member name: p450-cyp2c19 Compounds with AC50 equal or less than 10 uM are considered active. The format is functional. The settings on record: read-out: AC50.
Cytochrome P450 2C19, sequence (P33261 whole entry): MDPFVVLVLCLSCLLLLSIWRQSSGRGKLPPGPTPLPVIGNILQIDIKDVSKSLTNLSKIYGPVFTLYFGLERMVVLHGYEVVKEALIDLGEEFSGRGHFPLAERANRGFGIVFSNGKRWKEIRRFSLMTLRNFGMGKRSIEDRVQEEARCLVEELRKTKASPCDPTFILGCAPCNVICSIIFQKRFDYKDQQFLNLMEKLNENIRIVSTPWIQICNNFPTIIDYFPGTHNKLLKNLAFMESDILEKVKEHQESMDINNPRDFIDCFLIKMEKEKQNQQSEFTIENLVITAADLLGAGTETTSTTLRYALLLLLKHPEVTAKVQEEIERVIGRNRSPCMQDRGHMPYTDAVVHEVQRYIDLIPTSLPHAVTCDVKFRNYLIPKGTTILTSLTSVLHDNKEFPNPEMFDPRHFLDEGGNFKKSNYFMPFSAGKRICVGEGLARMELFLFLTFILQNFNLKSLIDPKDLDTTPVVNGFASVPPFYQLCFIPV
The nature of assay [6]: Trypanosoma cruzi growth suppression in host cells – NIH3T3 host cells, beta-gal luminescence, confirmation (AID 2044).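 Note: intracellular parasites grown in NIH/3T3 mouse fibroblasts as host cells; luminescent beta-galactosidase reporter signal from transgenic T. cruzi replicating inside host cells; inhibitors lower the luminescence signal.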 Type of assay: functional, cell-based.
A short description of assay [7]: NIH3T3 cell viability loss – ATP luminescence, mouse fibroblasts, counter-screen, dose response (AID 2010).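 Note: cells exposed to compound for about 90 hours before reading.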 Type of assay: functional, cell-based.
A further assay has as its target T4, Streptokinase A (Streptococcus pyogenes serotype M1, UniProt P10520).
T4 sequence (P10520 whole entry): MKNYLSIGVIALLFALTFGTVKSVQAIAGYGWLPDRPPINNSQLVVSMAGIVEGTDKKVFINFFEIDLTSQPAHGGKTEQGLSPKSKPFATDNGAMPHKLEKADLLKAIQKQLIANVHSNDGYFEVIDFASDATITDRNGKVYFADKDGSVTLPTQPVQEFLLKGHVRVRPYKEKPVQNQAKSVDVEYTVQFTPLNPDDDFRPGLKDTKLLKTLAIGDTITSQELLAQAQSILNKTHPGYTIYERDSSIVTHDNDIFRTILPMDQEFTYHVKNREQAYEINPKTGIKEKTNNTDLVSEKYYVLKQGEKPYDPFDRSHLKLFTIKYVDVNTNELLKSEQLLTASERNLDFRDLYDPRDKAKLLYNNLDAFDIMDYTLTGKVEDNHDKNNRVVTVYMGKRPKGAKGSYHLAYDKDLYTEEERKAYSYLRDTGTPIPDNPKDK
Briefly: viability-normalized secreted streptokinase activity reduction – plasminogen activation absorbance, OD405, dose response (AID 1914).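 Note: secreted streptokinase activity via plasminogen activation per viability signal from cell pellet.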 Type of assay: functional, Streptococcus pyogenes M1 GAS.

A further assay deals with Streptococcus. Briefly: GAS UMAA2166 growth inhibition – luminescence, BacTiterGlo, counter-screen for streptokinase expression inhibitor project, dose response (AID 1915).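 Note: potency for reduction of bacterial viability or growth.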 Type of assay: functional, organism-based.
Assay [8] relates to Streptococcus sp. 'group A'. Briefly: Streptococcus pyogenes SK(-)GAS viability under kanamycin – luminescence, BacTiterGlo, confirmation, counter-screen for streptokinase expression inhibitor project, dose response (AID 1900). Type of assay: functional, organism-based.
In a further assay the test system is INS1. Briefly: INS-1E survival protection against cytokine death – cell-based, luminescence, retest, dose response (AID 449756).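 Note: cell death triggered by IL-1 beta plus TNF-alpha plus IFN-gamma mixture; protective hits raise ATP signal compared with cytokine alone wells.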 The note with it: Rattus norvegicus. The format is functional.
The target of the next assay is T5, Cytochrome P450 1A2 (Homo sapiens, UniProt P05177).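 Note: PubChem cytochrome P450 panel assay, CYP1A2 panel member.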
T5 sequence (P05177 whole entry): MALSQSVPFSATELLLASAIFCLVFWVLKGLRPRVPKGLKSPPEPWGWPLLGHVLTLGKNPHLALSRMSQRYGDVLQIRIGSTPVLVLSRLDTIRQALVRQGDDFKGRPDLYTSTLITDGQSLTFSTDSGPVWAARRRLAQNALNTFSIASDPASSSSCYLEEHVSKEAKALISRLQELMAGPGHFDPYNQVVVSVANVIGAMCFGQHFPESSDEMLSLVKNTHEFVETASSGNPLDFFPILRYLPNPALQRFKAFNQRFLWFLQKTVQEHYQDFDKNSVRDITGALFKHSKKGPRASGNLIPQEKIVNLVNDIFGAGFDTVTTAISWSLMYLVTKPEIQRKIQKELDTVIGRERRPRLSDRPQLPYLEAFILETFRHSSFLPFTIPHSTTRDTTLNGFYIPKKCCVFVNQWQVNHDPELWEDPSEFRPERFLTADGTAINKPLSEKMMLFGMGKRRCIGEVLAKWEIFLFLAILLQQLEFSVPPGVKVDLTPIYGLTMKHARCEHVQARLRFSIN

Assay [9] is described as follows: viability of uninfected HEp-2 cells – cell-based, HTS, cytotoxicity control for RSV inhibitor project, dose response (AID 2410). Type of assay: functional. The settings on record: human respiratory syncytial virus.
The next assay addresses Cytochrome P450 3A4 (Homo sapiens, UniProt P08684).

Cytochrome P450 3A4, sequence (P08684 whole entry): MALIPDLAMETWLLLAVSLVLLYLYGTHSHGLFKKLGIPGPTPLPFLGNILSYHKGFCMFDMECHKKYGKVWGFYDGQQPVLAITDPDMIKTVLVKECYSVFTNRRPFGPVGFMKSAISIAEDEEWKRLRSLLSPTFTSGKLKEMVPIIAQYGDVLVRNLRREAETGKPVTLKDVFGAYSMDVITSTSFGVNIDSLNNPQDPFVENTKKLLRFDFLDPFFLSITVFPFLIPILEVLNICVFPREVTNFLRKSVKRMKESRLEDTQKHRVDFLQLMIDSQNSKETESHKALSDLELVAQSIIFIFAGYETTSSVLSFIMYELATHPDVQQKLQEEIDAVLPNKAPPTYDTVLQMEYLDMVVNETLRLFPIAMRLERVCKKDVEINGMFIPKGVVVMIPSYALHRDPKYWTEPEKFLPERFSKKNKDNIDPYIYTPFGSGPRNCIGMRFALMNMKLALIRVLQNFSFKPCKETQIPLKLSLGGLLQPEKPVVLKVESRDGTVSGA
Luciferin 4-monooxygenase, sequence (P08659 whole entry): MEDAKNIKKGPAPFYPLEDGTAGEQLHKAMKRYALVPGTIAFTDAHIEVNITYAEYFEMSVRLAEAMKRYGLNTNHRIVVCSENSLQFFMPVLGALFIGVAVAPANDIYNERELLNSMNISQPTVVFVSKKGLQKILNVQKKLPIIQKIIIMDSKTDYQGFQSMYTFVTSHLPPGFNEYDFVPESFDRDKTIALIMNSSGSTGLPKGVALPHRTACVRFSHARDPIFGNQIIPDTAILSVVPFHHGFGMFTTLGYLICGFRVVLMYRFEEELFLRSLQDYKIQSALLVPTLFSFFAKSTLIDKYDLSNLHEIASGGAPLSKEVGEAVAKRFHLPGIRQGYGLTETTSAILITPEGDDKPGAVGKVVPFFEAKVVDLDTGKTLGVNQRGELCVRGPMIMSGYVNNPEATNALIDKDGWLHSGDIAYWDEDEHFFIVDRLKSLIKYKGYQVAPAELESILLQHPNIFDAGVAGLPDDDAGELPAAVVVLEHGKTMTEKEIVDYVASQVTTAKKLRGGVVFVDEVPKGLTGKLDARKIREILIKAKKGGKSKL

`N#CC1=C(N)Oc2[nH]nc(-c3cccnc3)c2C1c1ccc([N+](=O)[O-])o1` (centres undefined): the IC50 in the assay “cells” was 9.19 µM (active).
Take `N=c1c(C(=O)NC2CCCCC2)cc2c(=O)n3ccccc3nc2n1Cc1cccnc1`: the EC50 is 12.7 µM (active) in assay [1] and > 300 µM (not active) in assay [2].
For the molecule `CCOC(=O)c1c(NC(=O)CC2Nc3ccccc3NC2=O)sc(C)c1C` (centres undefined), the half-maximal effective concentration (EC50) in [1] and in assay [2] was > 300 µM (not active) in each case.
Turning to `CCOC(=O)c1cc(-c2csc(COc3ccccc3)n2)on1`, in “cells”, the IC50 is < 0.1 µM (active).
Consider `C(=N\N1CCOCC1)/c1nc(-c2ccccc2)n2ccccc12`, for which the concentration for half-maximal inhibition (IC50) in assay [3] was 22.3 µM (active).
As for `O=C(Nc1ccc(Cl)cc1)OCc1cc(-c2ccccc2Cl)on1`, the concentration giving a half-maximal response (EC50) in assay [4] and in assay [5] was > 112 µM (not active) throughout. The AC50 at Cytochrome P450 2C9 is 1.12 µM (inconclusive).
Take `CSc1nc(C)c2c(n1)N(c1ccc(C(C)C)cc1)CC2`: the AC50 was 17.8 µM (inconclusive) at Cytochrome P450 2C19 and 11.2 µM (inconclusive) on Cytochrome P450 2C9.
Regarding `Cc1ccc(S(=O)(=O)CCSc2nc(C)cc(C(F)(F)F)c2C#N)cc1`, the EC50 in assay [1] is 80.8 µM (active); in assay [2] it was > 300 µM (not active).
For `Cc1cc(OCCCCCN2CCCC2)ccc1Cl`, in assay [3], the IC50 was 131 µM (active). The EC50 in [6] was 1.23 µM (active); in assay [7], 19.2 µM (active).
`CCN(CC)c1nc(C(F)(F)F)nc2c1nnn2Cc1ccccc1`: the EC50 on Streptokinase A is 12.4 µM (active); with Streptococcus it was > 150 µM (not active); in [8], 7.21 µM (active).
`CCOC(=O)c1sc2nccc(N(C)C)c2c1N=CNOCc1c(F)cccc1Cl`: the EC50 is 27 µM (active) at Streptokinase A; 1.26 µM (active) in [6]; > 60 µM (not active) in assay [7]; > 150 µM (not active) in the assay on Streptococcus; 11.6 µM (active) in assay [8].
As to `CCn1cc(C(=O)O)c(=O)c2cc(F)c(N/N=C/c3ccccc3[N+](=O)[O-])cc21`, the EC50 is > 150 µM (not active) at Streptokinase A, 13.4 µM (active) with Streptococcus and 4.31 µM (active) in [8]. Besides, the AC50 in the assay on INS1 is 10.1 µM (active).
For `O=C(NC(=S)Nc1cccc(Cl)c1N1CCCC1)c1ccc(-c2cccc([N+](=O)[O-])c2)o1`, the AC50 at Cytochrome P450 1A2 is 25.1 µM (inconclusive); at Cytochrome P450 2C9 it was 5.01 µM (inconclusive).
Turning to `COc1ccc2nc(C3CCCCC3)nc(C3CCCCC3)c2c1`, the EC50 at Streptokinase A was > 150 µM (not active); in the assay on Streptococcus, 5.71 µM (active); in assay [8], 2.8 µM (active).
For `Fc1ccc(N2CCN(Cc3c[nH]nc3-c3ccccc3)CC2)cc1`, the EC50 (on Streptokinase A; in the assay with Streptococcus; in assay [8]) was > 150 µM (not active) throughout.
Turning to `O=C(Nc1ccc2c(c1)CCC2)c1ccc(Br)o1`, the IC50 in the assay “cells” was > 50 µM (active).
`C/C(=N\Nc1ccc(Cl)c(Cl)c1)c1ccc(-n2ccnc2)cc1`: the values for the EC50 (at Streptokinase A; in the assay with Streptococcus; in assay [8]) were 17.2 µM (active), 11.9 µM (active) and 3.05 µM (active), respectively. Besides, the CC50 in assay [9] was 35.9 µM (active).
With `O=c1oc(-c2ccc(O)c(O)c2)cc2cccc(O)c12` [THUNBERGINOL A], in [3], the IC50 is 19.7 µM (active).
As to `O=C1NC(=O)N(Cc2ccccc2Cl)C(=O)/C1=C/Nc1ccc(F)cc1`, the EC50 in assay [1] and in assay [2] was > 300 µM (not active) in each case.
In the case of `Cc1ccc(CS(=O)(=O)Cc2ccc(C(=O)NCC3CCCO3)o2)cc1` (centres undefined), the values for the AC50 at Cytochrome P450 2C19, on Cytochrome P450 3A4 and on Cytochrome P450 2C9 were 31.6 µM (inconclusive), 15.8 µM (inconclusive) and 39.8 µM (inconclusive), respectively.
For `O=C(CSc1nnc(CNC(=O)c2c(F)cccc2F)o1)NCCc1ccccc1`, the EC50 (on Streptokinase A; with Streptococcus; in [8]) was > 150 µM (not active) in each case.
On to `c1cc(N2CCCC3(CCNCC3)C2)ccn1`, for which the results for the AC50 at Cytochrome P450 2C19, at Cytochrome P450 3A4 and on Cytochrome P450 2C9 were 25.1 µM (inconclusive), 12.6 µM (inconclusive) and 25.1 µM (inconclusive), respectively.
With `Cc1ccc(OCCCC(=O)N2CCOCC2)cc1`, the AC50 at Cytochrome P450 3A4 is 25.1 µM (inconclusive); on Cytochrome P450 1A2, 25.1 µM (inconclusive); at Cytochrome P450 2C9, 39.8 µM (inconclusive).
`O=C(CNCc1ccco1)Nc1cccc(S(=O)(=O)N2CCCCC2)c1`: the IC50 in [3] is 169 µM (active).
`O=C1NC(=O)C(=Cc2ccco2)C(=O)N1`: the IC50 in assay [3] was 141 µM (active).
In the case of `COC(=O)c1cc(C(=O)OC)cc(-n2c(C)cc(C(=O)CC#N)c2C)c1`, the EC50 in assay [1] and in assay [2] was > 300 µM (not active) each time.
Consider `Cc1ccc(C(=O)NNC2=Nc3cccc4cccc2c34)cc1`, for which the EC50 was > 150 µM (not active) at Streptokinase A, > 150 µM (not active) in the assay with Streptococcus and 3.26 µM (active) in [8].
